Molecular target: T1, human 11β-HSD1 (Homo sapiens, UniProt P28845)
T1 construct: expressed in transfected cells; host or cells: CHO cells (microsomes isolated from them)
Experiment: Inhibition of microsomal preparation of 11β-HSD1 (SPA, [3H]cortisone to [3H]cortisol), Biological Test Example 1
Assay type: biochemical
Settings: microsomes from CHO cells overexpressing human 11β-HSD1; for inhibition at 0.1 µM / Average % inhibition at 100 nM: 100 nM compound; for IC50: read-out: IC50 Range; for Average % inhibition at 100 nM: 0.1 µM
Description: The inhibition of microsomal preparation of 11β-HSD1 by compounds of the invention was measured essentially as previously described (K. Solly, S. S. Mundt, H. J. Zokian, G. J. Ding, A. Hermanowski-Vosatka, B. Strulovici, and W. Zheng, High-Throughput Screening of 11-Beta-Hydroxysteroid Dehydrogenase Type 1 in Scintillation Proximity Assay Format. Assay Drug Dev Technol 3 (2005) 377-384). All reactions were carried out at room temperature in 96 well clear flexible PET Microbeta plates (PerkinElmer). The assay begins by dispensing 49 p. 1 of substrate solution (50 mM HEPES, pH 7.4, 100 mM KCl, 5 mM NaCl, 2 mM MgCl2, 2 mM NADPH and 160 nM [^3H]cortisone (1 Ci/mmol)) and mixing in 1 μL of the test compounds in DMSO previously diluted in half-log increments (8 points) starting at 0.1 mM. After a 10 minute pre-incubation, 50 μL of enzyme solution containing microsomes isolated from CHO cells overexpressing human 11β-HSD1 (10-20 μg/ml of total protein) was added, and the plates were incubated for 90 minutes at room temperature. The reaction was stopped by adding 50 μl of the SPA beads suspension containing 10 μM 18β-glycyrrhetinic acid, 5 mg/ml protein A coated YSi SPA beads (GE Healthcare) and 3.3 μg/ml of anti-cortisol antibody (East Coast Biologics) in Superblock buffer (Bio-Rad). The plates were shaken for 120 minutes at room temperature, and the SPA signal corresponding to [^3H]cortisol was measured on a Microbeta plate reader.

T1 sequence (P28845 whole entry): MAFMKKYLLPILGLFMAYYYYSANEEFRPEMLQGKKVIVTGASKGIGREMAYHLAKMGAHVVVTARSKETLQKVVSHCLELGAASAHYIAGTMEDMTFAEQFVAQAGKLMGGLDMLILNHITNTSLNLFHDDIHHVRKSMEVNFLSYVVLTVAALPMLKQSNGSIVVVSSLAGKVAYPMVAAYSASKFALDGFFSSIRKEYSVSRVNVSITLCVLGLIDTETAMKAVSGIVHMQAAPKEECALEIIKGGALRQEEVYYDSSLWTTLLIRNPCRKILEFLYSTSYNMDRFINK

Row | SMILES | inhibition at 0.1 µM [%] | IC50 [nM] | Average % inhibition at 100 nM [%]
1 | Cc1cccc(N2CC(C)(c3ccccc3)OC2=O)c1 (stereo not drawn) [Example 7, 5-Methyl-5-phenyl-3-m-tolyloxazolidin-2-one] | 5.4 | > 1000 | –
2 | C[C@@H](c1ccc(-c2ccc(F)cc2)cc1)N1CC(CCCO)(c2ccc(F)cc2)OC1=O (single isomer, unassigned) [Example 3 Isomer 1] | – | < 100 | 91.4
3 | C[C@@H](c1ccc(Br)cc1)N1CC(CCCO)(c2ccc(F)cc2)OC1=O (single isomer, unassigned) [Example 2 Isomer 1] | – | < 100 | 78.3
4 | C[C@@H](c1ccc(Br)cc1)N1CC(CCCO)(c2ccc(F)cc2)OC1=O (single isomer, unassigned) [Example 2 Isomer 2] | – | > 100 | 16.9
5 | C[C@@H](c1ccc(-c2ccn(C)c(=O)c2)cc1)N1C[C@](CCC(C)(C)O)(c2ccccc2)OC1=O (single isomer, unassigned) [Example 6 Isomer 1] | 18.4 | > 100 | –
6 | C[C@@H](c1ccc(-c2ccc(F)cc2)cc1)N1CC(CCCO)(c2ccc(F)cc2)OC1=O (single isomer, unassigned) [Example 3 Isomer 2] | – | > 100 | 19.1

The remaining lines, values ahead:

Row | inhibition at 0.1 µM [%] | IC50 [nM] | Average % inhibition at 100 nM [%] | SMILES
7 | 3.4 | > 100 | – | C[C@@H](c1ccc(-c2ccn(C)c(=O)c2)cc1)N1C[C@@](CC(C)(C)O)(c2ccccc2)OC1=O (single isomer, unassigned) [Example 5 Isomer 2]
8 | 51.9 | < 100 | – | C[C@@H](c1ccc(-c2ccn(C)c(=O)c2)cc1)N1C[C@](CC(C)(C)O)(c2ccccc2)OC1=O (single isomer, unassigned) [Example 5 Isomer 1]
9 | – | > 100 | 19.8 | C[C@@H](c1ccc(-c2ccn(C)c(=O)c2)cc1)N1C[C@](CCC(C)(C)O)(c2ccccc2)OC1=O (single isomer, unassigned) [Example 6 Isomer 2]

Reference: patent US20110105504A1, “Inhibitors Of 11beta-Hydroxysteroid Dehydrogenase Type 1” (Vitae Pharmaceuticals ,Inc., priority 2008, published 2011)
